Columns and labels:
Beta-secretase 1 [1] = target: T1, Beta-secretase 1 (Homo sapiens, UniProt P56817); experiment: Inhibition of human recombinant BACE-1 expressed in HEK293 cells assessed as inhibition of amyloid precursor protein cleavage into amyloid beta after 60 mins using Rh-EVNLDAEFK-Quencher as a substrate by FRET assay; assay type: cell-based
Beta-secretase 1 [2] = target: T1, Beta-secretase 1; experiment: Noncompetitive inhibition of human recombinant BACE-1 by Dixon plot analysis

T1 sequence (P56817 whole entry): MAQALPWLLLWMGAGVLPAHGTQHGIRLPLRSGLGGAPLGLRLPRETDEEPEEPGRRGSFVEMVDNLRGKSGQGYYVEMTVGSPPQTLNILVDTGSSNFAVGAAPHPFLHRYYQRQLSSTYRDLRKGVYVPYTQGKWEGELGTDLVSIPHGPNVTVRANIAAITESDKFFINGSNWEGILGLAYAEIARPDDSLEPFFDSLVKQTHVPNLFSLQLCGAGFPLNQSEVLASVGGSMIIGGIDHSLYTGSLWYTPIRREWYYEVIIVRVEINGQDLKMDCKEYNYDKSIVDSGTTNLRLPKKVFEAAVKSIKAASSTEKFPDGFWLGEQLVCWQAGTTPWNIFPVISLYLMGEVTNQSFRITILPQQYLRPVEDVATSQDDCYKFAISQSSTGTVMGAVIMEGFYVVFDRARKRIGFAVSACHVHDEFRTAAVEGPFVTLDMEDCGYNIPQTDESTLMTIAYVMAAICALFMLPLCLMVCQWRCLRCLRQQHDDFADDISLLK

| SMILES | IC50 (Beta-secretase 1 [1]) [µM] | Ki (Beta-secretase 1 [2]) [µM] |
| --- | --- | --- |
| CC(C)=CC1Oc2cc(O)ccc2-c2oc3c4c(cc(O)c3c(=O)c21)OC(C)(C)C=C4 (configuration not stated) [CYCLOMORUSIN] | 101 | – |
| CC(C)=CCc1c(-c2ccc(O)c3c2OC(C)(C)C=C3)oc2cc(O)cc(O)c2c1=O [KUWANON A] | 5.3 | 10.6 |
| CC(C)=CCc1c(-c2ccc(O)cc2O)oc2c(CC=C(C)C)c(O)cc(O)c2c1=O [KUWANON C] | 3.4 | 2.2 |
| C/C(=C/Cc1c(-c2ccc(O)cc2O)oc2c3c(cc(O)c2c1=O)OC(C)(CO)C=C3)CO (configuration not stated) [MORMIN] | 103 | – |
| CC(C)(O)CCc1c(-c2ccc(O)cc2O)oc2c3c(cc(O)c2c1=O)OC(C)(C)C=C3 [MORUSINOL] | 136 | – |
| CC(C)=CCc1c(-c2ccc(O)cc2O)oc2c3c(cc(O)c2c1=O)OC(C)(C)C=C3 [MORUSIN] | 59.4 | 64.1 |
| CC1(C)C=Cc2c(cc(O)c3c(=O)c4c(oc23)-c2ccc(O)cc2OC(C(C)(C)O)C4)O1 (configuration not stated) [NEOCYCLOMORUSIN] | 146 | – |
| O=c1cc(-c2ccc(O)cc2O)oc2cc(O)cc(O)c12 [NORARTOCARPETIN] | 60.6 | 82.6 |

From ChEMBL document CHEMBL1770081, “Inhibition and structural reliability of prenylated flavones from the stem bark of Morus lhou on β-secretase (BACE-1)” (Bioorg Med Chem Lett, 2011)
